# Assays:
# [1] = target: Tyrosine-protein kinase HCK (Homo sapiens, UniProt P08631); assay: Inhibition of HCK
# [2] = target: Proto-oncogene tyrosine-protein kinase Src (Homo sapiens, UniProt P12931); assay: Inhibition of SRC
# [3] = target: Tyrosine-protein kinase Lck (Homo sapiens, UniProt P06239); assay: Inhibition of LCK
# [4] = Metabolic stability in mouse assessed as extraction ratio at 20 mg/kg, po; assay type: ADME, organism-based; set-up: dose 20 mg/kg, route oral; conditions: in vivo
# [5] = (§1) AUC in mouse at 20 mg/kg, po; assay type: ADME, organism-based, Plasma; set-up: dose 20 mg/kg, route oral; conditions: mouse, plasma, po, 20 mg/kg
# Mus musculus = assay: as §1; assay type: ADME, organism-based, Plasma; set-up: dose 20 mg/kg, route oral
# BaF3 = assay: Cytotoxicity against mouse BAF3 cells; assay type: functional, cell-based
# Sequence of Proto-oncogene tyrosine-protein kinase Src (P12931 2-536 limits assumed): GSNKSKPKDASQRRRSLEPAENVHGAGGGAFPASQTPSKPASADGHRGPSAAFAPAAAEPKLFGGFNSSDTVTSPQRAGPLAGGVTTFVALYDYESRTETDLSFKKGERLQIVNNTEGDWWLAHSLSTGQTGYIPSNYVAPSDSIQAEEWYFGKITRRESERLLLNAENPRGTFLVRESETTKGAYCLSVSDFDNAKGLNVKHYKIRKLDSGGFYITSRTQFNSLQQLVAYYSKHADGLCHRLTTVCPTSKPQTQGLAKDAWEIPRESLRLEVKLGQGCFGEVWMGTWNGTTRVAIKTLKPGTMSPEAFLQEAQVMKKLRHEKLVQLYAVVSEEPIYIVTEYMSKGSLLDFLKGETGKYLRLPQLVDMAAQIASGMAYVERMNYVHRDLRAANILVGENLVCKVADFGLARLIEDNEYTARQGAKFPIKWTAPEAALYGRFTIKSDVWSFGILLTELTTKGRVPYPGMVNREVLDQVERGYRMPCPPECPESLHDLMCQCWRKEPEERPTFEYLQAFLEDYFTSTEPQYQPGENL
# Sequence of Tyrosine-protein kinase HCK (P08631 whole entry): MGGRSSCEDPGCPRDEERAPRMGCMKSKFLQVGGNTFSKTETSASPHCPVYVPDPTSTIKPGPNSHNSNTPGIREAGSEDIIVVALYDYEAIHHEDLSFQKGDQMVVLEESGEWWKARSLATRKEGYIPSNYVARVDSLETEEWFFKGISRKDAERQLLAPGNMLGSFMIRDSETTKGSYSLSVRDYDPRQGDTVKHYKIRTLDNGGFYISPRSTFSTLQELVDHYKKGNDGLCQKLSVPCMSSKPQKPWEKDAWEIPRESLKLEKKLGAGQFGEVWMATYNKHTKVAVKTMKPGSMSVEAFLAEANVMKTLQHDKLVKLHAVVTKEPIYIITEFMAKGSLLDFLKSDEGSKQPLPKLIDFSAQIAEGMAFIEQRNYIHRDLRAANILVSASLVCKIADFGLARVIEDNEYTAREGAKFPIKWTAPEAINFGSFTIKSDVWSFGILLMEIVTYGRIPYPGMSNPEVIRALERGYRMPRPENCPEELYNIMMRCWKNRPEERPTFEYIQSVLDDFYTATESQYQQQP
# Sequence of Tyrosine-protein kinase Lck (P06239 whole entry): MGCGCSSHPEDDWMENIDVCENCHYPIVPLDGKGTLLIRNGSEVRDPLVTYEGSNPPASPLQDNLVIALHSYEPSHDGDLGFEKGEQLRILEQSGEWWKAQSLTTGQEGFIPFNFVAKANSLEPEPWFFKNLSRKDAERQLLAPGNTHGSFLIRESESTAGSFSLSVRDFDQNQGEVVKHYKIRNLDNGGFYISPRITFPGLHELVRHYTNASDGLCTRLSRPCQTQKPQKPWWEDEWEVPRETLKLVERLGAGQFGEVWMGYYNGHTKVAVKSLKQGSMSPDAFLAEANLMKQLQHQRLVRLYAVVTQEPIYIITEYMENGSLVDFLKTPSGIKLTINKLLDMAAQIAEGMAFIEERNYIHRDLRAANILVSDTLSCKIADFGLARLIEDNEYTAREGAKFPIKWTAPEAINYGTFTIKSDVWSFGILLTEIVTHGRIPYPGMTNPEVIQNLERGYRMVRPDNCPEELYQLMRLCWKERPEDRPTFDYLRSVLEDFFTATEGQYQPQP
SMILES,IC50 [1],IC50 [2],IC50 [3],hepatic extraction ratio [4],AUC [5],AUC (Mus musculus),IC50 (BaF3)
Cc1ccc(NC(=O)c2cc(CN3CCN(C)CC3)n(C(C)(C)C)n2)cc1Nc1nc2ccccc2n1-c1cc(N)ncn1,0.011 µM,0.177 µM,0.008 µM,,,,
Cc1cn(-c2cc(NC(=O)c3ccc(C)c(Nc4nc5ccccc5n4-c4cc(N)ncn4)c3)cc(C(F)(F)F)c2)cn1,0.904 µM,,0.238 µM,,,,
Cc1cccc(NC(=O)c2ccc(C)c(Nc3nc4ccccc4n3-c3cc(NCCCCN(C)C)ncn3)c2)c1,> 2.5 µM,,0.022 µM,,,,
CCN(CC)CCCCNc1cc(-n2c(Nc3cc(C(=O)Nc4cccc(C)c4)ccc3C)nc3ccccc32)ncn1,1.81 µM,,0.02 µM,,,,
Cc1cccc(NC(=O)c2ccc(C)c(Nc3nc4ccccc4n3-c3cc(NCCN4CCN(C)CC4)ncn3)c2)c1,> 2.5 µM,,0.038 µM,,,,
Cc1cccc(NC(=O)c2ccc(C)c(Nc3nc4ccccc4n3-c3cc(NCCCN4CCN(C)CC4)ncn3)c2)c1,1.87 µM,,0.019 µM,,,,
Cc1ccc(C(=O)Nc2cccc(C(F)(F)F)c2)cc1Nc1nc2ccccc2n1-c1cc(NCCCCN(C)C)ncn1,0.056 µM,0.485 µM,0.015 µM,,,,
CCN(CC)CCCCNc1cc(-n2c(Nc3cc(C(=O)Nc4cccc(C(F)(F)F)c4)ccc3C)nc3ccccc32)ncn1,0.475 µM,0.274 µM,0.018 µM,,,,
Cc1ccc(C(=O)Nc2cccc(C(F)(F)F)c2)cc1Nc1nc2ccccc2n1-c1cc(NCCN2CCN(C)CC2)ncn1,0.13 µM,0.458 µM,0.011 µM,,,,
Cc1ccc(C(=O)Nc2cccc(C(F)(F)F)c2)cc1Nc1nc2ccccc2n1-c1cc(NCCCN2CCN(C)CC2)ncn1,0.26 µM,0.494 µM,0.018 µM,,,,
Cc1ccc(C(=O)Nc2cccc(C(F)(F)F)c2)cc1Nc1nc2ccccc2n1-c1cc(NCCC#N)ncn1,> 2.5 µM,,1.37 µM,,,,
Cc1ccc(C(=O)Nc2cccc(C(F)(F)F)c2)cc1Nc1nc2ccccc2n1-c1ncnc(NCCCN2CCN(C)CC2)n1,0.054 µM,,0.012 µM,,,,
Cc1ccc(NC(=O)c2cc(OC3CCN(C)CC3)cc(C(F)(F)F)c2)cc1Nc1nc2ccccc2n1-c1cc(N)ncn1,0.027 µM,0.233 µM,0.024 µM,,,,
CCN1CCN(Cc2ccc(C(=O)Nc3ccc(C)c(Nc4nc5ccccc5n4-c4cc(N)ncn4)c3)cc2Cl)CC1,0.009 µM,0.032 µM,0.004 µM,,,,
Cc1ccc(NC(=O)c2cc(N3CCN(C)CC3)cc(C(F)(F)F)c2)cc1Nc1nc2ccccc2n1-c1cc(N)ncn1,0.02 µM,0.13 µM,0.011 µM,,,,
CCN1CCN(c2cc(C(=O)Nc3ccc(C)c(Nc4nc5ccccc5n4-c4cc(N)ncn4)c3)cc(C(F)(F)F)c2)CC1,0.016 µM,0.071 µM,0.011 µM,,,,
Cc1ccc(NC(=O)c2cccc(C(F)(F)F)c2)cc1Nc1nc2ccccc2n1-c1cc(NCCCN)ncn1,1.96 µM,,0.023 µM,,,,
Cc1ccc(NC(=O)c2cccc(C(F)(F)F)c2)cc1Nc1nc2ccccc2n1-c1cc(NCCCCN)ncn1,0.345 µM,,0.013 µM,,,,
CCN(CC)CCNc1cc(-n2c(Nc3cc(NC(=O)c4cccc(C(F)(F)F)c4)ccc3C)nc3ccccc32)ncn1,0.378 µM,> 2.5 µM,0.111 µM,,,,

SMILES,IC50 [1],IC50 [2],IC50 [3],hepatic extraction ratio [4],AUC [5],AUC (Mus musculus),IC50 (BaF3)
Cc1ccc(NC(=O)c2cccc(C(F)(F)F)c2)cc1Nc1nc2ccccc2n1-c1cc(NCCCCN(C)C)ncn1,0.065 µM,0.139 µM,0.005 µM,,,,
CCN(CC)CCCCNc1cc(-n2c(Nc3cc(NC(=O)c4cccc(C(F)(F)F)c4)ccc3C)nc3ccccc32)ncn1,0.43 µM,0.097 µM,0.012 µM,< 0.3,368 nM·h,,
Cc1ccc(NC(=O)c2cccc(C(F)(F)F)c2)cc1Nc1nc2ccccc2n1-c1cc(NCCCC2COCCN2)ncn1 (stereo not drawn),0.049 µM,0.165 µM,0.026 µM,,,,
Cc1ccc(NC(=O)c2cccc(C(F)(F)F)c2)cc1Nc1nc2ccccc2n1-c1cc(NCCC2CCCN2)ncn1 (stereo not drawn),0.805 µM,> 2.5 µM,0.038 µM,,,,
Cc1ccc(NC(=O)c2cccc(C(F)(F)F)c2)cc1Nc1nc2ccccc2n1-c1cc(N[C@H]2CC[C@H](N)CC2)ncn1,0.45 µM,1.72 µM,0.071 µM,0.383,,,
Cc1ccc(NC(=O)c2cccc(C(F)(F)F)c2)cc1Nc1nc2ccccc2n1-c1cc(NC2CCN(C)CC2)ncn1,> 2.5 µM,> 2.5 µM,0.168 µM,,,,
Cc1ccc(NC(=O)c2cccc(C(F)(F)F)c2)cc1Nc1nc2ccccc2n1-c1cc(NCCc2ccccn2)ncn1,0.917 µM,2.37 µM,0.204 µM,,,,
Cc1ccc(NC(=O)c2cccc(C(F)(F)F)c2)cc1Nc1nc2ccccc2n1-c1cc(N2CCOCC2)ncn1,> 2.5 µM,> 2.5 µM,> 2.5 µM,,,,
Cc1ccc(NC(=O)c2cccc(C(F)(F)F)c2)cc1Nc1nc2ccccc2n1-c1cc(NCCN2CCN(C)CC2)ncn1,0.069 µM,0.305 µM,0.029 µM,,,,
Cc1ccc(NC(=O)c2cccc(C(F)(F)F)c2)cc1Nc1nc2ccccc2n1-c1cc(NCCCN2CCN(C)CC2)ncn1,0.031 µM,0.128 µM,0.006 µM,,,,
COCCNc1cc(-n2c(Nc3cc(NC(=O)c4cccc(C(F)(F)F)c4)ccc3C)nc3ccccc32)ncn1,0.405 µM,1.69 µM,0.135 µM,,,2687 nmol·h/L,
Cc1ccc(C(=O)Nc2ccccc2)cc1Nc1nc2ccccc2n1-c1cc(N)ncn1,> 2.5 µM,,1.08 µM,,,,
Cc1ccc(NC(=O)c2cccc(Cl)c2)cc1Nc1nc2ccccc2n1-c1cc(N)ncn1,0.475 µM,1.65 µM,0.132 µM,,,,
Cc1cc(NC(=O)c2ccc(C)c(Nc3nc4ccccc4n3-c3cc(N)ncn3)c2)ccn1,> 2.5 µM,,0.177 µM,,,,
Cc1ccc(NC(=O)c2cccc(C(F)(F)F)c2)cc1Nc1nc2ccccc2n1-c1cc(N)ncn1,0.043 µM,0.45 µM,0.011 µM,,,,
Cc1ccc(NC(=O)c2cc(Cl)cc(Cl)c2)cc1Nc1nc2ccccc2n1-c1cc(N)ncn1,0.121 µM,0.53 µM,0.058 µM,,,,
Cc1ccc(C(=O)Nc2cccc(C(F)(F)F)c2)cc1Nc1nc2ccccc2n1-c1ncnc(N)c1C,> 2.5 µM,> 2.5 µM,2.4 µM,,,,
Cc1cccc(C(=O)Nc2ccc(C)c(Nc3nc4ccccc4n3-c3cc(N)ncn3)c2)c1,0.245 µM,1.54 µM,0.07 µM,,,,
Cc1ccc(NC(=O)c2ccncc2C(C)(C)C)cc1Nc1nc2ccccc2n1-c1cc(N)ncn1,0.046 µM,,,,,,

SMILES,IC50 [1],IC50 [2],IC50 [3],hepatic extraction ratio [4],AUC [5],AUC (Mus musculus),IC50 (BaF3)
Cc1ccc(C(=O)Nc2cccc(C(N)=O)c2)cc1Nc1nc2ccccc2n1-c1cc(N)ncn1,> 2.5 µM,,> 2.5 µM,,,,
COc1cccc(NC(=O)c2ccc(C)c(Nc3nc4ccccc4n3-c3cc(N)ncn3)c2)c1,> 2.5 µM,,0.09 µM,,,,
Cc1ccc(C(=O)Nc2cccc3cnccc23)cc1Nc1nc2ccccc2n1-c1cc(N)ncn1,> 2.5 µM,,0.616 µM,,,,
Cc1ccc(NC(=O)c2ccncc2Cl)cc1Nc1nc2ccccc2n1-c1cc(N)ncn1,> 2.5 µM,,0.715 µM,,,,
Cc1ccc(NC(=O)c2ccc(C(C)(C)C)s2)cc1Nc1nc2ccccc2n1-c1cc(N)ncn1,0.084 µM,0.916 µM,0.043 µM,,,,0.006 µM
Cc1ccc(NC(=O)c2cc(C3CC3)n[nH]2)cc1Nc1nc2ccccc2n1-c1cc(N)ncn1,0.446 µM,7.36 µM,0.12 µM,,,,
Cc1cccc(NC(=O)c2ccc(C)c(Nc3nc4ccccc4n3-c3cc(N)ncn3)c2)c1,> 2.5 µM,,0.052 µM,,,,
Cc1ccc(C(=O)Nc2cccc(C(C)C)c2)cc1Nc1nc2ccccc2n1-c1cc(N)ncn1,0.151 µM,,0.03 µM,,,,
Cc1ccc(C(=O)Nc2cccc(C(C)(C)C)c2)cc1Nc1nc2ccccc2n1-c1cc(N)ncn1,0.139 µM,,0.022 µM,,,,
COc1cc(-n2c(Nc3cc(NC(=O)c4cccc(C(F)(F)F)c4)ccc3C)nc3ccccc32)ncn1,> 2.5 µM,> 2.5 µM,2.03 µM,,,,
Cc1ccc(C(=O)Nc2cccc(C(F)(F)F)c2)cc1Nc1nc2ccccc2n1-c1cc(N)ncn1,> 2.5 µM,,0.059 µM,,,,
Cc1ccc(NC(=O)c2cccc(C(F)(F)F)c2)cc1Nc1nc2ccccc2n1-c1cc(NCCN)ncn1,> 2.5 µM,,0.23 µM,,,,
Cc1ccc(NC(=O)c2cccc(C(F)(F)F)c2)cc1Nc1nc2ccccc2n1-c1cc(NCCO)ncn1,0.192 µM,1.92 µM,0.027 µM,,,,
Cc1ccc(C(=O)Nc2cccc(Cl)c2)cc1Nc1nc2ccccc2n1-c1cc(N)ncn1,> 2.5 µM,,0.063 µM,,,,
Cc1ccc(C(=O)Nc2cccc(OC(F)F)c2)cc1Nc1nc2ccccc2n1-c1cc(N)ncn1,> 2.5 µM,,0.017 µM,,,,
Cc1ccc(C(=O)Nc2cccc(Br)c2)cc1Nc1nc2ccccc2n1-c1cc(N)ncn1,> 2.5 µM,,0.043 µM,,,,
Cc1ccc(NC(=O)c2cc(C(C)(C)C)nn2C)cc1Nc1nc2ccccc2n1-c1cc(N)ncn1,0.844 µM,7.19 µM,0.316 µM,,,,
Cc1ccc(NC(=O)c2cccc(C(F)(F)F)c2)cc1Nc1nc2ccccc2n1-c1cc(Cl)ncn1,3.83 µM,16.5 µM,1.16 µM,,,,
